Reference: the supplement of paper PMC10307832

What was measured:
Test in all cases: relative viability (nuclei count vs DMSO), 5 days (fraction); higher = more cells survive
[1] = compound: C=CCc1cccc(/C=N/NC(=O)CN2CCN(Cc3ccccc3)CC2)c1O [PAC-1] + Cc1cc(Nc2cc(N3CCN(C)CC3)nc(Sc3ccc(NC(=O)C4CC4)cc3)n2)n[nH]1 [Tozasertib] (partner 0.1 µM)
Method in brief: (§1)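 Values are medians from duplicate plates. Each reflects relative viability, defined as the nuclei count of treated wells over that of vehicle wells. Lung cancer cell lines in 1536-well plates were pin-tool dosed one day after seeding with one drug alone or with a fixed anchor-drug dose plus five library-drug doses (not always all listed) in √10 steps, then fixed, stained and imaged at 4× after 5 days.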

[2] = compound: C=CC(=O)Nc1cc(-n2c(=O)ccc3cnc4ccc(-c5ccc(NS(C)(=O)=O)cc5)cc4c32)ccc1C [BMX-IN-1] + CS(=O)(=O)N1CCN(Cc2cc3nc(-c4cccc5[nH]ncc45)nc(N4CCOCC4)c3s2)CC1 [Pictilisib] (partner 1 µM)
Method in brief: as §1

[3] = compound: C=CCc1cccc(/C=N/NC(=O)CN2CCN(Cc3ccccc3)CC2)c1O [PAC-1] + CC1(C)CCC(c2ccc(Cl)cc2)=C(CN2CCN(c3ccc(C(=O)NS(=O)(=O)c4ccc(N[C@H](CCN5CCOCC5)CSc5ccccc5)c(S(=O)(=O)C(F)(F)F)c4)cc3)CC2)C1 [Navitoclax] (partner 0.5 µM)
Method in brief: as §1

[4] = compound: C=CC(=O)N1CCC[C@@H](n2nc(-c3ccc(Oc4ccccc4)cc3)c3c(N)ncnc32)C1 [Ibrutinib] + Nc1nc2[nH]cc(CCc3ccc(C(=O)N[C@@H](CCC(=O)O)C(=O)O)cc3)c2c(=O)[nH]1 [Pemetrexed] (partner 0.2 µM)
Method in brief: as §1

Cell Line	relative viability ([1]; first compound 0.02 µM)	relative viability ([1]; first compound 0.06325 µM)	relative viability ([1]; first compound 0.2 µM)	relative viability ([1]; first compound 2 µM)	relative viability ([2]; first compound 0.02 µM)	relative viability ([2]; first compound 0.2 µM)	relative viability ([2]; first compound 0.6325 µM)	relative viability ([2]; first compound 2 µM)	relative viability ([3]; first compound 0.02 µM)	relative viability ([3]; first compound 0.06325 µM)	relative viability ([3]; first compound 0.2 µM)	relative viability ([3]; first compound 2 µM)	relative viability ([4]; first compound 0.005 µM)	relative viability ([4]; first compound 0.01581 µM)	relative viability ([4]; first compound 0.05 µM)	relative viability ([4]; first compound 0.1581 µM)	relative viability ([4]; first compound 0.5 µM)
NCI-H441	0.754	0.597	0.505	0.606	0.461	0.618	0.491	0.606	0.435	0.645	0.587	0.56	0.287	0.269	0.293	0.263	0.301
NCI-H460	0.356	0.453	0.394	0.542	0.376	0.511	0.371	0.501	1.1	1.14	0.922	1.09	0.0608	0.0607	0.0632	0.0616	0.1
NCI-H520	0.461	0.468	0.407	0.393	0.376	0.299	0.304	0.278	1.11	1.02	1.04	1.12	0.67	0.769	0.666	0.718	0.724
NCI-H596	0.903	0.885	0.857	1.01	0.382	0.379	0.405	0.343	0.887	0.932	0.951	0.951	0.499	0.487	0.482	0.409	0.543
NCI-H647	0.336	0.403	0.256	0.242	0.498	0.356	0.396	0.471	1.23	1.09	1.16	1.2	0.197	0.183	0.205	0.194	0.421
NCI-H838	0.283	0.239	0.262	0.279	0.535	0.444	0.598	0.472	1.08	1.12	1.08	1.21	0.255	0.236	0.246	0.265	0.292
NCI-H1355	0.536	0.568	0.569	0.564	0.374	0.443	0.487	0.434	0.866	0.961	0.965	0.962		0.944	0.987	1.06	0.951
NCI-H1395	0.629	0.7	0.749	0.646	0.82	1.02	0.701	0.61	1.21	1.16	1.32	1.32	0.752	0.934	0.804	0.797	1.07
NCI-H1437	0.395	0.391	0.378	0.378	0.455	0.391	0.425	0.462	1.04	1.12	1.01	0.775	0.366	0.33	0.361	0.296	0.408
NCI-H1650	0.361	0.393	0.522	0.375	0.776	0.675	0.705	0.548	1.18	1.15	1.22	1.04	0.347	0.308	0.348	0.42	0.287
NCI-H1651	0.615	0.786	0.631	0.65	0.658	0.754	0.741	0.595	0.924	1.12	1.06	1.09	0.436	0.661	0.572	0.479	0.558
NCI-H1666	0.553	0.605	0.615	0.544	0.404	0.365	0.428	0.396	1.14	0.915	0.933	1.04	0.716	0.984	0.793	0.859	0.871
NCI-H1734	0.199	0.256	0.23	0.267	0.529	0.541	0.488	0.432	0.826	0.832	0.813	0.881	0.423	0.415	0.461	0.387	0.489
NCI-H1755	0.541	0.587	0.506	0.512	0.446	0.541	0.498	0.423	0.959	0.954	0.986	0.989	0.42	0.481	0.475	0.456	0.516
NCI-H1793	0.316	0.338	0.439	0.238	0.306	0.309	0.365	0.279	0.453	0.46	0.535	0.461	0.526	0.877	0.664	0.515	0.501
NCI-H1915	0.421	0.436	0.411	0.428	0.953	0.898	1.14	1.04	0.449	0.794	0.751	0.767	0.532	0.599	0.587	0.513	0.715
NCI-H1944	0.231	0.247	0.236	0.246	0.386	0.352	0.387	0.336	1.03	1.04	0.954	1.04	0.624	0.514	0.643	0.518	0.629
NCI-H1975	0.76	0.824	0.748	0.729	0.285	0.291	0.363	0.287	1.12	1.2	1.12	1.06	0.292	0.28	0.315	0.277	0.309

Cell Line	relative viability ([1]; first compound 0.02 µM)	relative viability ([1]; first compound 0.06325 µM)	relative viability ([1]; first compound 0.2 µM)	relative viability ([1]; first compound 2 µM)	relative viability ([2]; first compound 0.02 µM)	relative viability ([2]; first compound 0.2 µM)	relative viability ([2]; first compound 0.6325 µM)	relative viability ([2]; first compound 2 µM)	relative viability ([3]; first compound 0.02 µM)	relative viability ([3]; first compound 0.06325 µM)	relative viability ([3]; first compound 0.2 µM)	relative viability ([3]; first compound 2 µM)	relative viability ([4]; first compound 0.005 µM)	relative viability ([4]; first compound 0.01581 µM)	relative viability ([4]; first compound 0.05 µM)	relative viability ([4]; first compound 0.1581 µM)	relative viability ([4]; first compound 0.5 µM)
NCI-H1993	0.635	0.541	0.469	0.548	0.836	0.95		0.821	0.85	0.814	0.837	0.95	0.444	0.58	0.609	0.567	0.597
NCI-H2009	0.816	0.715	0.698	0.696	1.19	0.946	0.905	0.765	1.16	1.18	1.22	1.16	1.08	1.06	1.16	1.11	1.22
NCI-H2023	0.404	0.355	0.382	0.347	0.27	0.241	0.265	0.334	0.981	0.963	0.953	1.02	0.208	0.219	0.293	0.248	0.396
NCI-H2085	0.787	0.81	0.797	0.796	0.433	0.389	0.485	0.443	1.1	1.08	1.12	1.16	0.878	0.828	0.759	0.621	0.671
NCI-H2087	0.197	0.252	0.281	0.259	0.876	0.662	0.954	1.15	1.15	0.991	0.965	0.998	0.639	0.626	0.748		0.694
NCI-H2126	0.919	0.829	0.82	0.821	0.473	0.481	0.568	0.51	0.884	0.886	0.87	0.854	0.509	0.653	0.717	0.671	0.69
NCI-H2170	0.693	0.776	0.805	0.712	0.319	0.312	0.319	0.307	0.637	0.622	0.569	0.461	0.248	0.266	0.264	0.259	0.21
NCI-H2228	0.228	0.258	0.263	0.234	0.578	0.471	0.443	0.432	0.98	1.12	0.893	0.785	0.33	0.345	0.328	0.397	0.445
NCI-H2347	0.534	0.572	0.576	0.511	0.748	0.576	0.613	0.748	0.817	0.871	0.698	0.865	0.454	0.4	0.434	0.462	0.463
NCI-H2405	0.688	0.737	0.74	0.786	0.505	0.444	0.484	0.393	0.891	0.969	0.855	1.08	1.01	0.97			1.06
NCI-H3122	0.421	0.425	0.394	0.344	0.689	0.632	0.571	0.675	0.975	1.02	1.01	0.993	0.214	0.203	0.219	0.191	0.301
PC-3 [JPC-3]	0.883	0.859	0.842	0.857	0.812	0.839	0.756	0.788	0.894	0.817	0.708	0.844	1.14	0.995	0.72	0.624	0.365
PC-14	0.572	0.635	0.63	0.626	0.952	0.85	0.774	0.851	0.968	0.975	0.959	1.03	0.157	0.138	0.133	0.121	0.201
RERF-LC-KJ	0.467	0.483	0.45	0.511	0.6	0.64	0.607	0.484	0.859	0.932	1.11	0.733	0.462	0.455	0.512	0.433	0.569
SK-LU-1	0.314	0.332	0.341	0.294	0.579	0.567	0.675	0.481	0.803	0.892	0.733	0.888		0.975	1.08	1	1.09
SW 1573	0.172	0.184	0.255	0.148	0.5	0.512	0.466	0.478	0.825	1.03	0.825	1.03		0.917	0.968	0.88	1.25
UMC-11	0.204	0.202	0.212	0.187	1.07	0.922	0.892	0.912	0.334	0.311	0.308	0.318	0.87	0.732	0.832	0.824	0.821
